Experimental data taken from paper PMC5913645, “Methyl phenlactonoates are efficient strigolactone analogs with simple structure” (Journal of Experimental Botany, 2017).
Entries after “also recorded” stand apart in the source; their conditions may differ.

Experiments:
rice d3 mutant = experiment: Rice micro tillering bioassay, d3 mutant; type: in vivo; conditions: 2.5 μM, hydroponic culture; average of four tillers per plant in treated and untreated samples
Experimental: Rice seeds (WT, d3, d10) were surface-sterilized by washing with 70% ethanol for 1 min and then with 2.5% sodium hypochlorite for 15 min. Seeds were then rinsed thoroughly with sterile MilliQ water and incubated in water for 2 d at 30 °C in the dark. Pre-germinated seeds were transferred to filter papers containing half-strength MS medium in 90 mm Petri dishes and incubated at 30 °C under fluorescent white light (130–180 μmol m^−2 s^−1) for 1 week. Seven-day-old seedlings were transferred to 50 ml falcon tubes (one seedling per tube) containing modified half-strength Hoagland nutrient solution and grown in greenhouse. Plants were treated with MPs at 2.5 μM to 2.5 × 10^–7 μM, using GR24 as positive control. The compounds were applied six times, twice a week. Number of tillers per plant, plant height and fresh biomass were measured at final harvest.

rice leaf segments = experiment: Dark-induced leaf senescence; design: species or system O. sativa, var. Shiokari; conditions: for transcript level of senescence-associated gene Osl20 / transcript level of senescence-associated gene Osl295: after 5 d of treatment; for change in color of leaf segments, earlier than the control / chlorophyll content of leaf segments / ion leakage of leaf segments compared with the control: dark; for change in color of leaf segments, earlier than the control: 30 °C, change on the third day after treatment; for chlorophyll content of leaf segments: on the third day; for ion leakage of leaf segments compared with the control: sixth and seventh day, no difference in the first 5 d
Experimental: One-week-old rice (O. sativa, var. Shiokari) seedlings were established as mentioned above. Uniform seedlings were transferred to 50 ml tubes containing half-strength Hoagland nutrient solution for 7 d and grown in an incubator under white fluorescent light (130–180 μmol m^−2 s^−1) with 16 h/8 h (L/D) at 28 °C for 1 week. Leaf segments of 2 cm were cut from middle part of third leaves of rice plants. Each segment was put in a well (in 24-well plates) containing 2 ml of 2.5 mM MES buffer with 0.05% Tween-20, and incubated at 30 °C in the dark for 7 d. After application of MPs, color change, chlorophyll content, ion leakage, and gene expression were monitored daily for 7 d.

ShHTL7 = biological target: T1, ShHTL7 (Striga hermonthica, UniProt A0A0M3PNA2); experiment: Intrinsic tryptophan fluorescence assay, ShHTL7; type: binding
T1 sequence (A0A0M3PNA2 1-271): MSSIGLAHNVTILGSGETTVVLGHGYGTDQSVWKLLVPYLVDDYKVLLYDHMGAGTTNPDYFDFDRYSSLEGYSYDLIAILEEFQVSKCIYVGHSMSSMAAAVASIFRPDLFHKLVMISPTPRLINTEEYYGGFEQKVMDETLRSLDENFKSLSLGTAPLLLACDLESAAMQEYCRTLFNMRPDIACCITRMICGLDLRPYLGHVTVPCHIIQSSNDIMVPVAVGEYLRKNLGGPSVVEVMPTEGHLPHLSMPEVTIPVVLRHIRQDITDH
Description: Striga hermonthica ShHTL7 cDNA was used, GenBank accession KR013127, kindly provided by Tsuyoshi Ota, The University of Tokyo, Japan. Arabidopsis D14 (AtD14) cDNA, GenBank accession AY097402, was synthesized and cloned into pUC57 (GenScript). ShHTL7 and OsD14 cDNAs were amplified by RT-PCR using the primers shown in Supplementary Table S2, digested with BamHI and XhoI, and ligated into BamHI/XhoI-digested pGEX-6P-1 expression vector (GE Healthcare). […] The plasmids were then transformed into E. coli BL21 (DE3) cells. The cells were grown in LB broth containing ampicillin ([…]), incubated at 37 °C until OD600 of 0.6 and induced with 0.1 mM isopropyl-β-D-thiogalactopyranoside at 16 °C for 16 h. Harvested cells were resuspended in lysis buffer: 50 mM Tris–HCl (pH 8.0), 200 mM NaCl, 0.5% Tween-20 and 2 mM dithiothreitol (DTT). After sonication on ice for 10 min, the lysate was centrifuged at 75 000 g for 30 min at 4 °C. Supernatant was allowed to bind to glutathione–sepharose beads (GE Healthcare) for 2 h at 4 °C, washed 3 times with buffer (50 mM Tris-HCl (pH 8.0), 200 mM NaCl, 2 mM DTT), and eluted by cleaving the GST moiety with PreScission™ Protease (GE Healthcare) at 4 °C overnight. […]

P. ramosa seeds = experiment: P. ramosa seed germination bioassay; type: in vivo, Phelipanche ramosa; conditions: 1.0 μM
Experimental: Parasitic weed seeds’ (S. hermonthica and P. ramosa) germination activity was studied as described previously ([Jamil et al., 2012]). Six pre-conditioned seed discs were placed in a 90 mm Petri dish containing a filter paper ring wetted with 0.9 ml sterile MilliQ water. Then 50 μl of SL analog solution (10^–5–10^–12 M) was applied on each of the six discs, for each concentration. GR24 solutions with equal concentrations and sterile MilliQ water were included as a positive and negative control, respectively. After application, seeds of S. hermonthica and P. ramosa were incubated in dark at 30 °C for 2 d and at 25 °C for 4 d, respectively. Germination (seeds with radicle emerging through the seed coat) was scored under a binocular microscope, and germination rate (%) was calculated.

[1] = system: artificially infested soil and pearl millet as a host; experiment: Trial in Burkina Faso, boxes with artificially infested soil; type: in vivo; conditions: 1 × 1 m^2 wooden boxes, to be published
Description: This activity was around 17 times weaker than that of GR24, pointing to MP1 as a suitable candidate for the suicidal germination approach. Very recently, we have evaluated the activity of MP1 in a trial conducted in Burkina Faso, in which we used 1 × 1 m^2 wooden boxes filled with artificially infested soil and pearl millet as a host. […] Apart from these three compounds, we observed lower germination activity with P. ramosa seeds than with those of S. hermonthica.

Arabidopsis seedlings = experiment: Arabidopsis hypocotyl elongation assay; type: in vivo; conditions: 1.0 μM, continuous red light
Experimental: Sterilized Arabidopsis seeds were sown on half-strength MS (with 0.5% sucrose+1% agar, 0.5 g l^−1 MES, pH 5.7) plates supplemented with MPs or GR24 (at 1.0 μM). Plates were stored at 4 °C in darkness for 3 d. To initiate germination, plates were exposed to continuous white light for 24 h, then transferred to continuous monochromatic red light (20 μmol m^−2 s^−1, 22 °C) conditions for another 4 d. For hypocotyl length measurement, at least 30 seedlings were measured using the freely available ImageJ software (http://rsbweb.nih.gov/ij/) after taking digital photographs. A monochromatic red light source was applied as described previously ([Wu and Yang, 2010]). Light flow rates were measured using a Li250 quantum photometer (Li-Cor, Lincoln, NE, USA).

SMILES | high-tillering phenotype of SL-insensitive d3 mutant (rice d3 mutant) | transcript level of senescence-associated gene Osl20 (rice leaf segments) | transcript level of senescence-associated gene Osl295 (rice leaf segments) | change in color of leaf segments, earlier than the control (rice leaf segments) | chlorophyll content of leaf segments (rice leaf segments) | ion leakage of leaf segments compared with the control (rice leaf segments) | Kd (ShHTL7) [nM] | P. ramosa germination activity (P. ramosa seeds) | germination activity in soil box trial [1] | inhibition of hypocotyl growth (Arabidopsis seedlings)
CC1=CC(OC=C2C(=O)OC3c4ccccc4CC23)OC1=O (stereo not shown) [GR24, reference compound] | neither MPs nor GR24 could restore the high-tillering phenotype | striking increase | striking increase | about 2 d | clear reduction | striking increase | 440 ± 210 | – | – | –
COC(=O)/C(=C/OC1C=C(C)C(=O)O1)c1ccc([N+](=O)[O-])cc1 (stereo not shown) [MP1, (E)-methyl 3-(4-methyl-5-oxo-2,5-dihydrofuran-2-yloxy)-2-(4-nitrophenyl)acrylate] | – | – | – | – | – | – | – | much higher activity; also recorded: quite similar to that of GR24 | significantly higher germination activity than GR24 | –
COC(=O)/C(=C/OC1C=C(C)C(=O)O1)c1ccccc1 (stereo not shown) [MP3, (E)-methyl 3-(4-methyl-5-oxo-2,5-dihydrofuran-2-yloxy)-2-phenylacrylate] | – | striking increase in their transcripts, which was more pronounced | striking increase in their transcripts, which was more pronounced | about 2 d | clear reduction | striking increase | – | – | – | –
COC(=O)/C(=C/OC1C=C(C)C(=O)O1)c1ccc(Cl)cc1 (stereo not shown) [MP7] | – | – | – | – | – | – | 1150 ± 310 | – | – | stronger inhibitory effect than GR24
